The values below come from patent US20220257484A1, “WHOLE MOUTH MALADOR CONTROL BY A COMBINATION OF ANTIBACTERIAL AND DEODORIZING AGENTS” (The Procter & Gamble Company, priority 2010, published 2022).

This experiment can be described thus: in-vitro headspace GC-MS odor-neutralizing test, Relative Odor Activity Value (ROAV). The settings on record: recreated garlic odor, 0.05% active concentration, vs control, negative value indicates no reduction. As for the experimental part: The odor-neutralizing or deodorization activity of target actives was evaluated against a recreated garlic odor using an in-vitro headspace gas chromatography-mass spectrometry (GC-MS) method described below. A mixture of five sulfur compounds (ethanethiol, 1-propanethiol, […], methyl allyl disulfide and […]) was used to simulate a garlic odor. […] [See e.g., J. Taucher, et al. J. Agric. Food Chem. (1996), 44 (12), 3778-3782; F. Suarez, et al. Am. J. Physiol. Gastrointest. Liver Physiol. (1999), 276: G425-G430; I. Laakso, et al. Planta Med. (1989), 55, 257-261; X. J. Cai, et al. J. Agric. Food Chem. (1995), 43, 1751-1753; T. Minami, et al. J. Food Sci. (1989), 54, 763-765.]
The following procedure and instrumentation were used to evaluate the relative odor-neutralizing activity of various compounds.
1) Purge product base (e.g., mouthrinse or dental solution) with nitrogen for 10 minutes. 2) Purge all sample preparation vials with stir bars inside for 1 minute. 3) Add 3960 μl product base to control vials (4 ml capacity) and 3560 μl product base to test sample vials (4 ml capacity). 4) Make garlic stock by mixing the following components in order: 600 μl ethanol; 500 μl ethanethiol; 80 μl 1-propanethiol; 30 μl […]; 20 μl methyl allyl disulfide; 70 μl […]. 5) Add 40 ul of garlic stock to each control and test sample vial. 6) Stir all samples to mix product base and garlic stock for a total time of 20 min. To each test sample vial, add 400 μl of test active after 15 min. of stirring and allow test active mix in and react for 5 min. 7) After mixing, transfer 50 μl each of control sample and test sample to nitrogen purged GC headspace vials. 8) Place control and test sample vials on headspace autosampler for GC analysis. Each sample is equilibrated at 32° C. for 3 min. before injection into the GC instrument.
A Relative OAV is calculated for each component by dividing its peak area by its odor threshold value. Odor threshold values for these compounds are reported in the literature. […] A negative value indicates no reduction in ROAV.

Where “and” joins values, the source holds several entries; their conditions need not be identical. Equal values may be shown once.

Take `Cc1ccc(C=O)cc1` [4-methylbenzaldehyde]: the “% Reduction of ROAV” value is listed as 3.67%.

As to `CC1=CC(=O)[C@@H](C(C)C)CC1` [(−) Piperitone], the “% Reduction of ROAV” value is 10.19%.

With `COc1ccc(C=O)cc1` [Anisaldehyde, 4-methoxybenzaldehyde], the “% Reduction of ROAV” value was found to be 20.76%. Besides, the “% Reduction of ROAV” value (listed as 4-Methoxybenzaldehyde (Anisaldehyde)) was 20.76%. The “% Reduction of ROAV” value (listed as anisaldehyde) was 20.76% and > 20%.

`O=CC=Cc1ccccc1` [Cinnamaldehyde]: the “% Reduction of ROAV” value worked out at 10.73%.

For the compound `CC(C)=CCCC(C)=CC=O` [Citral, reference compound], the “% Reduction of ROAV” value is −19.54%.

As to `CCc1occc(=O)c1O` [Ethyl maltol, reference compound], the “% Reduction of ROAV” value is reported as −3.46%.

As to `O=Cc1ccc2c(c1)OCO2` [Heliotropin, reference compound], the “% Reduction of ROAV” value is given as −2.92%.

For the compound `CCCCCC/C(C=O)=C\c1ccccc1` [Hexyl cinnamaldehyde, reference compound], the “% Reduction of ROAV” value was −1.19%.

Turning to `COc1ccc(C=O)cc1OC` [Methyl vanillin (Veratraldehyde), 3,4-Dimethoxybenzaldehyde], the “% Reduction of ROAV” value is reported as 4.45%.

Consider `CCCCCCCC=O` [Octanal, reference compound], for which the “% Reduction of ROAV” value was −28.76%. In addition, the “% Reduction of ROAV” value (listed as octanal) was “no reduction of ROAV”.

As to `O=Cc1ccccc1O` [Salicylaldehyde, 2-Hydroxybenzaldehyde, reference compound], the “% Reduction of ROAV” value is −5.87%.

Regarding `COc1ccc(C=CC=O)cc1` [para-Methoxycinnamaldehyde, reference compound], the “% Reduction of ROAV” value is −0.49%.

`CC(=O)/C=C/C1=C(C)CCCC1(C)C` [β-Ionone]: the “% Reduction of ROAV” value amounted to 17.56%.

For L(−) Carvone, the “% Reduction of ROAV” value is 3.27%.
